Laboratory results as given in patent publication US20170327779A1, “METHOD FOR PRODUCING CELL AGGREGATES” (Kaneka Corporation, priority 2015, published 2017).

Assays:
Type in all cases: cell-based
human iPS cells [1] = test: Glucose consumption and total cell count of human iPS cells cultured in suspension with LPA or S1P; conditions: 0.2 or 1 μg/mL, compared with BSA-ff alone; for number of cells (total cell count): Day 5, n=3 (FIG. 13); for glucose consumption: Days 2 to 5, n=3 (FIG. 12)
Description: Human iPS cell suspensions were prepared using substantially the same protocol as in Example 5. To each cell suspension were added LPA or S1P at a final concentration of 0.2 μg/mL or 1 μg/mL, and BSA-ff at a final concentration of 5 mg/mL and Y-27632 (Wako Pure Chemical Industries, Ltd.) at a final concentration of 10 μM. As a control, cell suspensions were prepared using the same protocol as in Example 5. That is, prepared were the cell suspensions solely containing BSA-ff at a final concentration of 5 mg/mL and Y-27632 at a final concentration of 10 μM.
The above cell suspensions were subjected to suspension culture for […] under the same conditions as in Example 5. At Day 2 of culture, the culture medium was changed every day with Essential 8™ culture medium supplemented with 5 mg/mL BSA-ff. At Days 2, 3, 4, and 5, the concentration of glucose in the culture supernatant was measured to calculate glucose consumption. In addition, at Day 5 of culture, cell aggregates were collected, dispersed using Accutase, and suspended in Essential 8™ culture medium supplemented with 5 mg/mL BSA-ff. A portion of each cell suspension was stained with trypan blue and the number of cells was counted. The above cell suspensions were centrifuged at 300 g for 5 min, the supernatant was then removed, and the cells were washed with PBS (phosphate buffered saline). Next, the cells were fixed with 4% PFA (paraformaldehyde) at room temperature for 20 min, then washed 3 times with PBS, and permeabilized with cold methanol at −20° C. overnight. After washed 3 times with PBS, the cells were blocked with 3% FBS (fetal calf serum)/PBS and stained using a fluorescently labeled anti-SOX2 antibody (Cat. No. 656110, Biolegend, Inc.) and a fluorescently labeled anti-OCT4 antibody (Cat. No. 653703, Biolegend, Inc.) at 4° C. for 1 h. After washed once with 3% FBS (fetal calf serum)/PBS, the cells were made to pass through a cell strainer. The resulting cells were analyzed on FACSVerse.
The following procedure was used to measure glucose consumption. Specifically, the culture supernatant was recovered at medium change and a bioanalyzer (Y512950), manufactured by YSI, Inc., was used to measure the remaining glucose amount. In this way, the glucose consumption was calculated.
A total cell count was measured at Day 5 of culture. The following procedure was used to measure the total cell count. Specifically, the cell aggregates that had been formed were treated with TrypLE Select for 5 to 10 min, pipetted using a blue tip to monodisperse as cells, and stained with trypan blue. After that, the number of cells was counted using a hemocytometer to determine the total cell count.

human iPS cells [2] = test: Effect of LPA or S1P on cell aggregation of human iPS cells in suspension culture, microscopic observation; conditions: for φ, width of the widest portion of cell aggregate (average±standard deviation): 1 day, 30 aggregates; for size of spherical cell aggregates: 0.2 μg/mL, BSA-ff 5 mg/mL, Y-27632 10 μM, 1 day suspension culture (FIG. 8)
Description: Human iPS cells that had been cultured using the protocol of Example 1 were treated with TrypLE Select, EDTA solution, or Accutase for 3 to 5 min and were detached. After dispersed as single cells, the cells were made to pass through a cell strainer with a pore size of 40 μm (Becton, Dickinson and Company) to monodisperse as single cells. The resulting cells were suspended in Essential 8™ medium containing a final concentration of 10 μM Y-27632 (Wako Pure Chemical Industries, Ltd.). A portion thereof was then stained with trypan blue and the number of cells was counted. Suspensions containing 2×10^5 cells per ml were prepared. To each cell suspension were added lipid-free bovine serum albumin (BSA-ff; CultureSure albumin, Wako Pure Chemical Industries, Ltd.) at a final concentration of 5 mg/mL and Y-27632 (Wako Pure Chemical Industries, Ltd.) at a final concentration of 10 μM. In addition, the following lipids were each added to the cell suspension and the cells were subjected to rotary shaking culture for 1 day under the same conditions as in Example 2 to culture human iPS cells in suspension. After one day of the suspension culture, the cells were observed under a microscope.
The lipids and additives used in this study are as follows: • LPA (Lysophosphatidic acid) (1-O-9Z-octadecenoyl-sn-glyceryl-3-phosphoric acid, a sodium salt, Cat. No. 62215, Cayman, Inc.; with an oleyl group at sn-1 position).
S1P (Sphingosine-1-phosphoric acid) (2S-amino-1-(dihydrogen phosphate)-4E-octadecene-1,3R-diol, Cat. No. 62570, Cayman, Inc.)
LPA at 0.2 μg/mL or S1P at 0.2 μg/mL was added to the human iPS cell suspension.
(§1) Human iPS cell suspensions were prepared using substantially the same protocol as in Example 5. LPA was added as a sodium salt at a concentration of 0.00128 μg/mL, 0.0064 μg/mL, 0.032 μg/mL, 0.16 μg/mL, 0.8 μg/mL, 4 μg/mL, 20 μg/mL, or 100 μg/mL. To each suspension were added BSA-ff at a final concentration of 5 mg/mL and Y-27632 (Wako Pure Chemical Industries, Ltd.) at a final concentration of 10 μM. The cells were cultured in suspension for 1 day under the same conditions as in Example 5 and then observed under a microscope.
Inspected were 30 cell aggregates on an observation image obtained when the concentration of LPA was from 0.16 to 100 μg/mL. While being compared using a micrograph scale, the width (referred to as “φ”) of the widest portion of each cell aggregate was measured to calculate an average±standard deviation.
as §1, with “[…]” for “LPA”, “free form” for “sodium salt”
Inspected were 30 cell aggregates on an observation image obtained when the concentration of S1P was from 0.032 to 100 μg/mL. While being compared using a micrograph scale, the width (referred to as “φ”) of the widest portion of each cell aggregate was measured to calculate an average±standard deviation. […]

human iPS cells [3] = test: Formation of aggregates of human iPS cells by rotary shaking suspension culture with KSR or its protein-based components; conditions: factor added instead of KSR; micrographs at Day 1 (FIG. 6)
Description: TkDN4-M cell line (Non-Patent Literature 1) was used as human iPS cells. The human iPS cells were seeded on cell culture dishes coated with Matrigel (Corning, Inc.) or Vitronectin (Life Technologies Japan Ltd.). A culture medium, which was mTeSR1 (STEMCELL Technologies, Inc.) or Essential 8™ (Life Technologies Japan Ltd.), was used for maintenance culture. As a cell detachment agent at the time of cell passage, TrypLE Select (Life Technologies Japan Ltd.) was used when the cells were cultured on Matrigel; and 0.02% EDTA (ethylene diamine tetraacetic acid) solution or Accutase (Life Technologies Japan Ltd.) was used when the cells were cultured on Vitronectin. In addition, when the cells were seeded, Y-27632 (Wako Pure Chemical Industries, Ltd.) at a concentration of 10 μM was added to a culture medium. The culture medium was changed every day. For experiments, human iPS cells (the number of passage was 50 or less) were used.
Human iPS cells were treated with TrypLE Select or EDTA solution for 3 to 5 min and were detached. After dispersed as single cells, the cells were made to pass through a cell strainer with a pore size of 40 μm (Becton, Dickinson and Company). […] A portion thereof was then stained with trypan blue and the number of cells was counted. […]

Compound | number of cells (total cell count) (human iPS cells [1]) | glucose consumption (human iPS cells [1]) | φ, width of the widest portion of cell aggregate (average±standard deviation) (human iPS cells [2]; 0.16 μg/mL) [μm] | size of spherical cell aggregates (human iPS cells [2]) | φ, width of the widest portion of cell aggregate (average±standard deviation) (human iPS cells [2]; 0.8 μg/mL) [μm] | φ, width of the widest portion of cell aggregate (average±standard deviation) (human iPS cells [2]; 4 μg/mL) [μm] | φ, width of the widest portion of cell aggregate (average±standard deviation) (human iPS cells [2]; 20 μg/mL) [μm] | φ, width of the widest portion of cell aggregate (average±standard deviation) (human iPS cells [2]; 100 μg/mL) [μm] | diameter of cell aggregates (human iPS cells [2]; LPA 0.032 μg/mL or less, 1 day (FIG. 9)) [mm] | formation of cell aggregates (human iPS cells [2]; LPA 0.16 to 100 μg/mL, 1 day (FIG. 9)) | diameter of cell aggregates (human iPS cells [2]; S1P 0.0064 μg/mL or less, 1 day (FIG. 10)) [mm] | formation of cell aggregates (human iPS cells [2]; S1P 0.032 to 100 μg/mL, 1 day (FIG. 10)) | formation of aggregates (human iPS cells [3])
1-O-9Z-octadecenoyl-sn-glyceryl-3-phosphoric acid, a sodium salt [LPA] | larger | larger | 124.9±26.5 | about 100 μm | 68.2±9.8 | 57.2±8.7 | 39.9±8.0 | 41.6±9.9 | ≥ 1 | cell aggregates with a substantially uniform size were formed | – | – | –
CCCCCCCCCCCCC/C=C/[C@@H](O)[C@@H](N)COP(=O)(O)O [S1P, 2S-amino-1-(dihydrogen phosphate)-4E-octadecene-1,3R-diol] | larger | larger | 142.4±16.4 | about 100 μm | 118.5±21.8 | 109.9±23.1 | 94.0±19.4 | 89.0±19.5 | – | – | ≥ 1 | cell aggregates with a substantially uniform size were formed | –
insulin: insulin (Sigma-Aldrich Co. LLC.), lipid-free protein-based component of KSR | – | – | – | – | – | – | – | – | – | – | – | – | large aggregates
transferrin: transferrin (Sigma-Aldrich Co. LLC.), lipid-free protein-based component of KSR | – | – | – | – | – | – | – | – | – | – | – | – | large aggregates
